# Reference: patent US20160101072A1, “Therapeutic uses of enzyme inhibitors” (Proximagen Limited, priority 2013, published 2016)
# Marks after values point to notes of the source that are not given here.
# Columns and labels:
# Lgals3 mRNA = assay: mRNA quantification (RT PCR) of Lgals3 in muscles of mdx mice; assay type: in vivo, mouse
# Source text: (§1) A total of a ninety C57BU10ScSn-Dmdmdx/J male mice, 3 weeks of age (+/-3days), were transferred to the in vivo research laboratory in Bar Harbor, Me. Additional ten […] male mice 3 weeks of age (+/-3 days) were also transferred and served as a wild-type control group. The mice were ear notched for identification and housed in ventilated polysulfone cages with HEPA filtered air at a density of 3-4 mice per cage. The animal room was lit entirely with artificial fluorescent lighting on controlled 12 hour light/dark cycle (6 a.m. to 6 p.m. light). […] The animal room was set for 15 air exchanges per hour. Filtered tap water acidified to a pH of 2.8 to 3.2 was provided ad libitum. […] Prior to study initiation, mice were acclimated for 3 days. Mice were tested for grip strength and in the open field at ages 25 and 26 days, and drug regimen was initiated at age 27 days. Mice were monitored twice weekly for clinical observations and body weights. […] 24 hours after the second open field tests, blood was collected by retro-orbital bleeding, and mice were humanely euthanized by CO2 asphyxiation. One triceps surae was collected fresh and processed for immune cell sorting, one tibialis anterior was preserved in RNALater for RNA extraction, one whole hind limb and the diaphragm were fixed in 2% paraformaldehyde overnight at 4° C. for paraffin embedding and histology stains. Total RNAs were extracted with a modification of the Trizol method, reverse transcribed, and mRNAs of TGFβ, and the following inflammation markers were quantified by the SYBR green method with GAPDH as a normalizer: […]
# CD11b mRNA = assay: mRNA quantification (RT PCR) of CD11b in muscles of mdx mice; assay type: in vivo, mouse
# Source text: as §1
# CD53 mRNA = assay: mRNA quantification (RT PCR) of CD53 in muscles of mdx mice; assay type: in vivo, mouse
# Source text: as §1
# [1] = test system: CD11b+Ly6Clow anti-fibrotic myeloid cells (Ly6C- monocytes); assay: Cell sorting: recruitment of CD11b+Ly6Clow anti-fibrotic myeloid cells into muscles of mdx mice; assay type: in vivo, mouse; conditions: for % change compared to vehicle (CD11b+Ly6Clow anti-fibrotic myeloid cells) / % of viable cells (CD11b+Ly6Clow anti-fibrotic myeloid cells): 4 weeks, mdx mice muscle
# Source text: (§2) In this example, labelled antibodies were used to assess infiltration of inflammatory myeloid and lymphoid cells into muscles of mdx mice following treatment of the mice with different doses of the glucocorticoid prednisolone, and the VAP-1 inhibitors carbidopa and benserazide. CD11b is a transmembrane glycoprotein which is expressed on the surface of granulocytes (including neutrophils and eosinophils), monocytes, NK cells, dendritic cells, tissue macrophages and subsets of T and B cells. Labelled antibody to CD11b was used to assess infiltration of inflammatory myeloid cells into muscles of mdx mice. Labelled antibody to Ly6C was used to assess infiltration of pro- and anti-inflammatory monocytes into muscles of mdx mice. Labelled antibody to CD4 and CD8a antigen was used to assess infiltration of Th cells (CD4^+CD8^-) and double negative (CD4^-CD8^-) T cells into muscles of mdx mice. A total of a ninety C57BU10ScSn-Dmdmdx/J male mice, 3 weeks of age (+/-3days), were transferred to the in vivo research laboratory in Bar Harbor, Me. Additional ten […] male mice 3 weeks of age (+/-3 days) were also transferred and served as a wild-type control group. The mice were ear notched for identification and housed in ventilated polysulfone cages with HEPA filtered air at a density of 3-4 mice per cage. The animal room was lit entirely with artificial fluorescent lighting on controlled 12 hour light/dark cycle (6 a.m. to 6 p.m. light). […] The animal room was set for 15 air exchanges per hour. Filtered tap water acidified to a pH of 2.8 to 3.2 was provided ad libitum. […] Prior to study initiation, mice were acclimated for 3 days. Mice were tested for grip strength and in the open field at ages 25 and 26 days, and drug regimen was initiated at age 27 days. Mice were monitored twice weekly for clinical observations and body weights. […] 24 hours after the second open field tests, blood was collected by retro-orbital bleeding, and mice were humanely euthanized by CO2 asphyxiation. One triceps surae was collected fresh and processed for immune cell sorting, one tibialis anterior was preserved in RNALater for RNA extraction, one whole hind limb and the diaphragm were fixed in 2% paraformaldehyde overnight at 4° C. for paraffin embedding and histology stains. For immune cell sorting, muscle samples were enzymatically and mechanically dissociated following manufacturer instructions (Skeletal Muscle Dissociation KitCatalog no. 130-098-305, Miltenyi Biotec). Cells were stained with the following antibodies: [table] Stained cells were analyzed on a BD LSR II cytometer and counts of different populations were expressed in percentage of the number of live cells counted.
# IL-6 mRNA = assay: mRNA quantification (RT PCR) of IL-6 in muscles of mdx mice; assay type: in vivo, mouse; conditions: mdx mice muscle
# Source text: as §1
# [2] = test system: CD11b+Ly6Chigh profibrotic myeloid cells (Ly6C+ monocytes); assay: Cell sorting: recruitment of CD11b+Ly6Chigh profibrotic myeloid cells into muscles of mdx mice; assay type: in vivo, mouse; conditions: mdx mice muscle; for % change compared to vehicle (CD11b+Ly6Chigh profibrotic myeloid cells) / % of viable cells (CD11b+Ly6Chigh profibrotic myeloid cells): 4 weeks
# Source text: as §2
# CD11b+ myeloid cells = assay: Cell sorting: recruitment of CD11b+ myeloid cells into muscles of mdx mice; assay type: in vivo, mouse; conditions: mdx mice muscle; for % change compared to vehicle (CD11b+ myeloid cells) / % of viable cells (CD11b+ myeloid cells): 4 weeks
# Source text: as §2
# Ly6C1 mRNA = assay: mRNA quantification (RT PCR) of Ly6C1 in muscles of mdx mice; assay type: in vivo, mouse; conditions: mdx mice muscle
# Source text: as §1
# [3] = test system: CD11b+Ly6Chigh profibrotic : CD11b+Ly6Clow anti-fibrotic myeloid cells; assay: Ratio of profibrotic to anti-fibrotic myeloid cells in mdx mouse muscle; assay type: in vivo; conditions: both doses
# Source text: In this example, labelled antibodies were used to assess infiltration of inflammatory myeloid and lymphoid cells into muscles of mdx mice following treatment of the mice with different doses of the glucocorticoid prednisolone, and the VAP-1 inhibitors carbidopa and benserazide. […] Labelled antibody to CD11b was used to assess infiltration of inflammatory myeloid cells into muscles of mdx mice. Labelled antibody to Ly6C was used to assess infiltration of pro- and anti-inflammatory monocytes into muscles of mdx mice. Labelled antibody to CD4 and CD8a antigen was used to assess infiltration of Th cells (CD4^+CD8^−) and double negative (CD4^−CD8^−) T cells into muscles of mdx mice.
# A total of a ninety C57BU10ScSn-Dmdmdx/J male mice, 3 weeks of age (+/−3days), were transferred to the in vivo research laboratory in Bar Harbor, Me. Additional ten C57BU10ScSnJ male mice 3 weeks of age (+/−3 days) were also transferred and served as a wild-type control group. The mice were ear notched for identification and housed in ventilated polysulfone cages with HEPA filtered air at a density of 3-4 mice per cage. […]
# diaphragms of mdx mice = assay: H & E staining of diaphragm sections of mdx mice (inflammatory infiltrates); assay type: in vivo, mouse; conditions: 20 mg/kg po once per day, 6 weeks, 12 week old mdx mice
# Source text: (§3) The most studied animal model for DMD is the mdx mouse. This was first described by Bulfield et al (Proc. Natl. Acad. Sci. USA, 1984, 81:1189-1192). It has a point mutation within its dystrophin gene, and as a result the mouse has no functional dystrophin in its muscles. […] As it ages, certain muscle types (including the diaphragm) show weakness and increased fibrosis. […] This provides a quantitative framework for studying the pathogenesis of dystrophy (Stedman et al, Nature, 1991, 352, 536-539).
# (§4) 12 week old mdx mice were treated with benserazide (20 mg/kg, po, once per day) or vehicle (water, once per day), in groups of 8 mice. After 6 weeks of treatment, diaphragms of the mice were collected and flash frozen in liquid nitrogen-cooled isopentane. The sections were stored on slides at −20° C. until required.
# (§5) Hematoxylin and eosin (H & E) staining was used to show cytoplasmic, nuclear, and extracellular matrix features. Hematoxylin stains nucleic acids, and eosin stains proteins nonspecifically. Staining of F4/80 antigen (a glycoprotein expressed by murine macrophages) was used to show macrophages.
# CD48 mRNA = assay: mRNA quantification (RT PCR) of CD48 in muscles of mdx mice; assay type: in vivo, mouse
# Source text: as §1
# [4] = test system: lymphoid CD4+CD8- T cells; assay: Cell sorting: recruitment of lymphoid CD4+CD8- T cells into muscles of mdx mice; assay type: in vivo, mouse; conditions: mdx mice muscle
# Source text: as §2
# TGFβ mRNA = assay: mRNA quantification (RT PCR) of pro-fibrotic growth factor TGFβ in muscles of mdx mice; assay type: in vivo, mouse
# Source text: as §1
# macrophages = assay: Staining of murine F4/80 antigen in diaphragm sections of mdx mice (macrophage infiltration); assay type: in vivo, mouse; conditions: 20 mg/kg po once per day, 6 weeks, 12 week old mdx mice
# Source text: as §3, §4, §5
# TNF mRNA = assay: mRNA quantification (RT PCR) of TNF in muscles of mdx mice; assay type: in vivo, mouse
# Source text: as §1
# Mpeg1 mRNA = assay: mRNA quantification (RT PCR) of Mpeg1 in muscles of mdx mice; assay type: in vivo, mouse; conditions: mdx mice muscle
# Source text: as §1
# [5] = test system: lymphoid CD4-CD8- (double negative, DN) T cells; assay: Cell sorting: recruitment of lymphoid CD4-CD8- (double negative, DN) T cells into muscles of mdx mice; assay type: in vivo, mouse; conditions: mdx mice muscle
# Source text: as §2
# eosinophils = conditions: DMD / mdx dystrophic muscle, previous studies; cited from earlier work
# T cells = conditions: correlated with reduction in muscle necrosis and fibrosis; very early studies; cited from earlier work
# [6] = 20 mg/kg po twice/day, mdx mice muscle, GAPDH as normalizer
# [7] = treatment alone, mdx mouse muscle
# [8] = doses as in the table (carbidopa 100, benserazide 20 mg/kg po twice/day; prednisolone 1 mg/kg ip once/day)
structure (smiles),measurement,setting,value
NC(CO)C(=O)NNCc1ccc(O)c(O)c1O (stereo not drawn) [Benserazide],Lgals3 mRNA level,Lgals3 mRNA; [6],0.95
same,effect on the level of Lgals3 mRNA,Lgals3 mRNA; [7],no significant effect
same,CD11b mRNA level,CD11b mRNA; [6],1.12
same,effect on the level of CD11b mRNA,CD11b mRNA; [7],not significantly affected
same,CD53 mRNA level,CD53 mRNA; [6],0.95
same,effect on the level of CD53 mRNA,CD53 mRNA; [7],not significantly affected
same,% change compared to vehicle (CD11b+Ly6Clow anti-fibrotic myeloid cells),[1]; 7 mg/kg po twice/day,−16.5%
same,% of viable cells (CD11b+Ly6Clow anti-fibrotic myeloid cells),[1]; 7 mg/kg po twice/day,22.7%
same,% change compared to vehicle (CD11b+Ly6Clow anti-fibrotic myeloid cells),[1]; 20 mg/kg po twice/day,−27.9%
same,% of viable cells (CD11b+Ly6Clow anti-fibrotic myeloid cells),[1]; 20 mg/kg po twice/day,19.6* %
same,inhibition of recruitment of anti-fibrotic myeloid cells compared with vehicle,"[1]; higher dose of benserazide, statistically significant",27.9%
same,effect on IL-6 mRNA level,IL-6 mRNA,No effects
same,% change compared to vehicle (CD11b+Ly6Chigh profibrotic myeloid cells),[2]; 7 mg/kg po twice/day,−11.5%
same,% of viable cells (CD11b+Ly6Chigh profibrotic myeloid cells),[2]; 7 mg/kg po twice/day,6.49%
same,% change compared to vehicle (CD11b+Ly6Chigh profibrotic myeloid cells),[2]; 20 mg/kg po twice/day,−26.9%
same,% of viable cells (CD11b+Ly6Chigh profibrotic myeloid cells),[2]; 20 mg/kg po twice/day,5.36%
same,effect on recruitment of profibrotic myeloid cells compared with vehicle,[2]; both doses,"little, if any, statistically significant effect"
same,% change compared to vehicle (CD11b+ myeloid cells),CD11b+ myeloid cells; 7 mg/kg po twice/day,−13.7%
same,% of viable cells (CD11b+ myeloid cells),CD11b+ myeloid cells; 7 mg/kg po twice/day,31.4%
same,% change compared to vehicle (CD11b+ myeloid cells),CD11b+ myeloid cells; 20 mg/kg po twice/day,−32.4%
same,% of viable cells (CD11b+ myeloid cells),CD11b+ myeloid cells; 20 mg/kg po twice/day,24.6* %
same,reduction of CD11b+ myeloid cell recruitment compared with vehicle,CD11b+ myeloid cells; higher dose of benserazide,approximately one-third
same,effect on Ly6C1 mRNA level,Ly6C1 mRNA,No effects
same,relative levels of pro- and anti-fibrotic myeloid cells,[3],not affected
same,reduction in inflammatory infiltrates compared to vehicle (H & E staining),diaphragms of mdx mice,~50%
same,CD48 mRNA level,CD48 mRNA; [6],0.85
same,effect on the level of CD48 mRNA,CD48 mRNA; [7],no significant effect
same,% change compared to vehicle (lymphoid CD4+CD8- T cells),"[4]; 20 mg/kg po twice/day, 4 weeks",−37.0%
same,% of viable cells (lymphoid CD4+CD8- T cells),"[4]; 20 mg/kg po twice/day, 4 weeks",9.2* %
same,reduction of recruitment of lymphoid CD4+CD8- T cells compared with vehicle,[4]; [8],over 50%
same,% change compared to vehicle (TGFβ mRNA),"TGFβ mRNA; 20 mg/kg po twice/day, mdx mice muscle",−34.7%
same,TGFβ mRNA,TGFβ mRNA; [6],0.79
same,reduction of the TGFβ mRNA level (fraction in words),"TGFβ mRNA; treatment alone, muscle of mdx mice",over a third
same,reduction in macrophage infiltration compared to vehicle (F4/80 staining),macrophages,~50%
same,TNF mRNA level,TNF mRNA; [6],0.79
same,effect on the level of TNF mRNA,TNF mRNA; [7],No significant effect
same,effect on Mpeg1 mRNA level,Mpeg1 mRNA,No effects
same,% change compared to vehicle (lymphoid CD4-CD8- DN T cells),"[5]; 20 mg/kg po twice/day, 4 weeks",−44.8%
same,% of viable cells (lymphoid CD4-CD8- DN T cells),"[5]; 20 mg/kg po twice/day, 4 weeks",18** %
same,reduction of recruitment of lymphoid DN T cells compared with vehicle,[5]; [8],over 50%
"C[C@]12C=CC(=O)C=C1CC[C@@H]1[C@@H]2C(=O)C[C@@]2(C)[C@H]1CC[C@]2(O)C(=O)CO [Prednisone, prednisone]",effect on eosinophil infiltration,eosinophils,reduce eosinophil infiltration
same,effect on T cells in DMD patients,T cells,reduction in T cells
